Experiment [1] deals with Plasmodium falciparum 3D7. The experiment can be described thus: P. falciparum growth inhibition assay (Pf-LDH). It counts as cell-based. Conditions: Plasmodium falciparum, Erythrocyte; P. falciparum 3D7 infected erythrocytes, 72 h incubation, PfLDH readout. Summed up:
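P. falciparum 3D7 (chloroquine-sensitive) at 0.25% parasitemia and 2% hematocrit was incubated with compound for 72 h at 37° C under 4% CO2/3% O2/93% N2. After freeze-thaw, PfLDH activity was read at 650 nm with lactate/APAD/NBT/diaphorase mix (pH 8.0).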

The next experiment concerns the target T1, human HDAC1 (Homo sapiens, UniProt Q13547).
T1 construct: made in house; host or cells: HeLa (ATCC CCL-2), mammalian cells
The experiment can be described thus: Homo sapiens HDAC1 inhibition assay (Fluor-de-Lys, enzymatic). The format is biochemical. The following applies: human HDAC enzymatic assay; read-out: hHDAC IC50. Summed up: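 Product developed with trypsin developer containing 2 μM TSA to stop the reaction; fluorescence measures deacetylase activity, inversely related to inhibition.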

The term EC50 denotes the concentration giving half of the maximal effect. One may read the IC50 as the point on the concentration scale where inhibition reaches its midpoint.

Molecules are shown by their SMILES. Where only a bound is given, the exact number is not on record here.

T1 sequence (Q13547 whole entry): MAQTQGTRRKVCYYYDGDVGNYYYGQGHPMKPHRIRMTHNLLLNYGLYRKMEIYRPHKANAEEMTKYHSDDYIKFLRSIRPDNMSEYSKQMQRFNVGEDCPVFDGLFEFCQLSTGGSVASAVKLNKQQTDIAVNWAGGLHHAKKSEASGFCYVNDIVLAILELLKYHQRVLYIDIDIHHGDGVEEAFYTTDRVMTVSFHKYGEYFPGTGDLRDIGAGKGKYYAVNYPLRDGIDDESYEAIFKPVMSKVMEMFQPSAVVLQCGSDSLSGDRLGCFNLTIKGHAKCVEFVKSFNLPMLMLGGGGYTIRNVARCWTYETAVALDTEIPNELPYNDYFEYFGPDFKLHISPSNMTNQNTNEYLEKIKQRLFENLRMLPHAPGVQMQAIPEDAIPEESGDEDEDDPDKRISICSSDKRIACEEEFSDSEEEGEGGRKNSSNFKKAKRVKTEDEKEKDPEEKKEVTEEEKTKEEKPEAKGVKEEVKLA

Regarding `CNC(=O)CCCCC[C@H](NC(=O)c1cccnc1)c1ncc(-c2ccc3ccccc3c2)[nH]1` [Entry 175, (S)-N-(7-(methylamino)-1-(5-(naphthalen-2-yl)-1H-imidazol-2-yl)-7-oxo-heptyl)nicotinamide], the half-maximal effective concentration (EC50) in experiment [1] was less than 1000 nM. Besides, on human HDAC1, the IC50 is less than 1000 nM.

In the case of `CCN1CCCC(C(=O)N[C@@H](CCCCCC(=O)NC)c2ncc(-c3ccc4ccccc4c3)[nH]2)C1` (stereo partly drawn) [Entry 176, 1-ethyl-N-((S)-7-(methylamino)-1-(5-(naphthalen-2-yl)-1H-imidazol-2-yl)-7-oxo-heptyl)piperidine-3-carboxamide], in experiment [1], the EC50 was in the range of 1000 to 5000 nM. For the same compound, the half-inhibitory concentration (IC50) on human HDAC1 is less than 1000 nM.

In experiment [1], `CNC(=O)CCCCC[C@H](NC(=O)C12CCN(CC1)CC2)c1ncc(-c2cc3ccccc3nc2OC)[nH]1` [Entry 177, (S)-N-(1-(5-(2-methoxyquinolin-3-yl)-1H-imidazol-2-yl)-7-(methylamino)-7-oxo-heptyl)quinuclidine-4-carboxamide] registered a 50% effective concentration (EC50) of less than 1000 nM. Besides, the concentration for half-maximal inhibition (IC50) at human HDAC1 was less than 1000 nM.

In experiment [1], `CNC(=O)CCCCC[C@H](NC(=O)CN(C)C)c1ncc(-c2cc3ccccc3nc2OC)[nH]1` [Entry 179, (S)-7-(2-(dimethyl-amino)acetamido)-7-(5-(2-methoxyquinolin-3-yl)-1H-imidazol-2-yl)-N-methylheptanamide] registered an EC50 greater than 5000 nM. Besides, the concentration for half-maximal inhibition (IC50) at human HDAC1 lay within 1000 to 5000 nM.

Compound `CNC(=O)CCCCC[C@H](NC(=O)CCn1cncn1)c1ncc(-c2cc3ccccc3nc2OC)[nH]1` [Entry 180, (S)-7-(3-(1H-1,2,4-triazol-1-yl)propanamido)-7-(5-(2-methoxyquinolin-3-yl)-1H-imidazol-2-yl)-N-methyl-heptanamide] came in with a half-maximal effective concentration (EC50) in experiment [1] of 1000 to 5000 nM. On human HDAC1, the half-inhibitory concentration (IC50) was 1000 to 5000 nM.

Turning to `CNC(=O)CCCCC[C@H](NC(=O)C12CCN(CC1)CC2)c1ncc(-c2ccc(Cl)c(C)c2)[nH]1` [Entry 181, (S)-N-(1-(5-(4-chloro-3-methylphenyl)-1H-imidazol-2-yl)-7-(methylamino)-7-oxo-heptyl)quinuclidine-4-carboxamide], in experiment [1], the EC50 is greater than 5000 nM. The half-maximal inhibitory concentration (IC50) on human HDAC1 lay in the range of 1000 to 5000 nM.

Consider `CNC(=O)CCCCC[C@H](NC(=O)OCc1ccccc1)c1ncc(-c2ccc(-c3ccn(C)n3)cc2)[nH]1` [Entry 182, (S)-benzyl(1-(5-(4-(1-methyl-1H-pyrazol-3-yl)phenyl)-1H-imidazol-2-yl)-7-(methylamino)-7-oxoheptyl)carbamate], for which the EC50 in experiment [1] was 1000 to 5000 nM. Besides, the half-maximal inhibitory concentration (IC50) at human HDAC1 lay within 1000 to 5000 nM.

For `CNC(=O)CCCCC[C@H](NC(=O)c1ccc(N2CC(=O)NC2=O)cc1)c1ncc(-c2cc3ccccc3nc2OC)[nH]1` [Entry 183, (S)-4-(2,4-dioxoimidazolidin-1-yl)-N-(1-(5-(2-methoxyquinolin-3-yl)-1H-imidazol-2-yl)-7-(methylamino)-7-oxoheptyl)benzamide], the EC50 in experiment [1] fell in the range of 1000 to 5000 nM. Besides, the IC50 on human HDAC1 was in the range of 1000 to 5000 nM.

With `CNC(=O)CCCCC[C@H](NC(=O)Cn1cnnc1)c1ncc(-c2cc3ccccc3nc2OC)[nH]1` [Entry 184, (S)-7-(2-(4H-1,2,4-triazol-4-yl)acetamido)-7-(5-(2-methoxyquinolin-3-yl)-1H-imidazol-2-yl)-N-methylheptanamide], the EC50 in experiment [1] was 1000 to 5000 nM. The IC50 on human HDAC1 lay within 1000 to 5000 nM.

Regarding `CNC(=O)CCCCC[C@H](NC(=O)Cc1csc(-c2ccccc2)n1)c1ncc(-c2cc3ccccc3nc2OC)[nH]1` [Entry 185], the concentration for a half-maximal effect (EC50) in experiment [1] is 1000 to 5000 nM. Further, the IC50 at human HDAC1 lay in the range of 1000 to 5000 nM.

In experiment [1], `CNC(=O)CCCCC[C@H](NC(=O)CCc1c(C)nc2ncnn2c1C)c1ncc(-c2cc3ccccc3nc2OC)[nH]1` [Entry 186, (S)-7-(3-(5,7-dimethyl-[1,2,4]triazolo[1,5-a]pyrimidin-6-yl)propanamido)-7-(5-(2-methoxyquinolin-3-yl)-1H-imidazol-2-yl)-N-methylheptanamide] gave an EC50 of less than 1000 nM. Also, on human HDAC1, the IC50 is less than 1000 nM.

On to `CNC(=O)CCCCC[C@H](NC(=O)C1CCCO1)c1ncc(-c2cc3ccccc3nc2OC)[nH]1` (stereo partly drawn) [Entry 187, N-((S)-1-(5-(2-methoxyquinolin-3-yl)-1H-imidazol-2-yl)-7-(methylamino)-7-oxo-heptyl)tetra-hydrofuran-2-carboxamide], for which the half-maximal effective concentration (EC50) in experiment [1] is greater than 5000 nM. In addition, the half-maximal inhibitory concentration (IC50) on human HDAC1 was greater than 5000 nM.

In experiment [1], `CNC(=O)CCCCC[C@H](NC(=O)c1cncs1)c1ncc(-c2cccc(-c3cc[nH]n3)c2)[nH]1` [Entry 188, (S)-N-(1-(5-(3-(1H-pyrazol-3-yl)phenyl)-1H-imidazol-2-yl)-7-(methylamino)-7-oxoheptyl)thiazole-5-carboxamide] showed a concentration giving a half-maximal response (EC50) of 1000 to 5000 nM. Besides, on human HDAC1, the half-maximal inhibitory concentration (IC50) is greater than 5000 nM.

On to `CNC(=O)CCCCC[C@H](NC(=O)c1cc(C(C)C)on1)c1ncc(-c2ccc3ccncc3c2)[nH]1` [Entry 189, (S)-5-isopropyl-N-(1-(5-(isoquinolin-7-yl)-1H-imidazol-2-yl)-7-(methylamino)-7-oxoheptyl)isoxazole-3-carboxamide], for which, in experiment [1], the EC50 was 1000 to 5000 nM. Further, the concentration for half-maximal inhibition (IC50) on human HDAC1 lay within 1000 to 5000 nM.

In turn, `CNC(=O)CCCCC[C@H](NC(=O)c1cncs1)c1ncc(-c2ccc3cc(C(F)(F)F)ncc3c2)[nH]1` [Entry 190] displayed an EC50 in experiment [1] of less than 1000 nM. In addition, the IC50 at human HDAC1 was less than 1000 nM.

Take `CNC(=O)CCCCC[C@H](NC(=O)c1cncs1)c1ncc(-c2ccc3c(cnn3C)c2)[nH]1` [Entry 191, (S)-N-(1-(5-(1-methyl-1H-indazol-5-yl)-1H-imidazol-2-yl)-7-(methylamino)-7-oxoheptyl)thiazole-5-carboxamide]: in experiment [1], the concentration for a half-maximal effect (EC50) is less than 1000 nM. Further, on human HDAC1, the IC50 lay within 1000 to 5000 nM.

Compound `CNC(=O)CCCCC[C@H](NC(=O)c1cncs1)c1ncc(-c2ccc(-c3ccccc3)nc2OC)[nH]1` [Entry 192, (S)-N-(1-(5-(2-methoxy-6-phenylpyridin-3-yl)-1H-imidazol-2-yl)-7-(methylamino)-7-oxoheptyl)thiazole-5-carboxamide] showed an EC50 in experiment [1] of 1000 to 5000 nM. The 50% inhibitory concentration (IC50) on human HDAC1 was greater than 5000 nM.

For the compound `CNC(=O)CCCCC[C@H](NC(=O)c1cncs1)c1ncc(-c2cc3ccccc3[nH]c2=O)[nH]1` [Entry 193, (S)-N-(7-(methylamino)-7-oxo-1-(5-(2-oxo-1,2-dihydroquinolin-3-yl)-1H-imidazol-2-yl)heptyl)thiazole-5-carboxamide], the EC50 in experiment [1] was less than 1000 nM. The half-inhibitory concentration (IC50) at human HDAC1 was less than 1000 nM.

In the case of `CNC(=O)CCCCC[C@H](NC(=O)c1cncs1)c1ncc(-c2ccc3cc(OC)ccc3c2)[nH]1` [Entry 194, (S)-N-(1-(5-(6-methoxynaphthalen-2-yl)-1H-imidazol-2-yl)-7-(methylamino)-7-oxoheptyl)thiazole-5-carboxamide], in experiment [1], the 50% effective concentration (EC50) was less than 1000 nM. Further, the IC50 on human HDAC1 is less than 1000 nM.

As for `CNC(=O)CCCCC[C@H](NC(=O)c1ccc(N2CC(=O)NC2=O)cc1)c1ncc(-c2ccc(-n3cccn3)cc2)[nH]1` [Entry 195, (S)-N-(1-(5-(4-(1H-pyrazol-1-yl)phenyl)-1H-imidazol-2-yl)-7-(methylamino)-7-oxoheptyl)-4-(2,4-dioxoimidazolidin-1-yl)benzamide], the half-maximal effective concentration (EC50) in experiment [1] was in the range of 1000 to 5000 nM. The half-inhibitory concentration (IC50) at human HDAC1 is greater than 5000 nM.

Take `CNC(=O)CCCCC[C@H](NC(=O)c1cncs1)c1ncc(-c2ccc(-c3cccnc3)cc2)[nH]1` [Entry 196, (S)-N-(7-(methylamino)-7-oxo-1-(5-(4-(pyridin-3-yl)phenyl)-1H-imidazol-2-yl)heptyl)thiazole-5-carboxamide]: the half-maximal effective concentration (EC50) in experiment [1] is 1000 to 5000 nM. Further, the concentration for half-maximal inhibition (IC50) at human HDAC1 is 1000 to 5000 nM.

Turning to `CNC(=O)CCCCC[C@H](NC(=O)c1csc(-c2cccnc2)n1)c1ncc(-c2ccc3ccccc3c2)[nH]1` [Entry 197, (S)-N-(7-(methylamino)-1-(5-(naphthalen-2-yl)-1H-imidazol-2-yl)-7-oxoheptyl)-2-(pyridin-3-yl)thiazole-4-carboxamide], the EC50 in experiment [1] was 1000 to 5000 nM. The IC50 at human HDAC1 was greater than 5000 nM.

In experiment [1], `CNC(=O)CCCCC[C@H](NC(=O)C1CC(=O)Nc2ccccc21)c1ncc(-c2ccc3ccccc3c2)[nH]1` (stereo partly drawn) [Entry 198, N-((S)-7-(methylamino)-1-(5-(naphthalen-2-yl)-1H-imidazol-2-yl)-7-oxoheptyl)-2-oxo-1,2,3,4-tetrahydroquinoline-4-carboxamide] yielded a concentration for a half-maximal effect (EC50) of less than 1000 nM. Also, the IC50 on human HDAC1 was in the range of 1000 to 5000 nM.

`CNC(=O)CCCCC[C@H](NC(=O)CCc1cnn(C)c1)c1ncc(-c2ccc3ccccc3c2)[nH]1` [Entry 199, (S)-N-methyl-7-(3-(1-methyl-1H-pyrazol-4-yl)propanamido)-7-(5-(naphthalen-2-yl)-1H-imidazol-2-yl)heptanamide] gave an EC50 in experiment [1] of 1000 to 5000 nM. The IC50 on human HDAC1 is less than 1000 nM.

`CNC(=O)CCCCC[C@H](NC(=O)Cc1c(C)[nH]c2ccc(OC)cc12)c1nnc(-c2ccc3ccccc3c2)o1` [Entry 200, (S)-7-(2-(5-methoxy-2-methyl-1H-indol-3-yl)acetamido)-N-methyl-7-(5-(naphthalen-2-yl)-1,3,4-oxadiazol-2-yl)heptanamide] gave an EC50 in experiment [1] of 1000 to 5000 nM. For the same compound, at human HDAC1, the IC50 is less than 1000 nM.

Regarding `CNC(=O)CCCCC[C@H](NC(=O)CC1=CSC2=NCCCN12)c1ncc(-c2cc3ccccc3nc2OC)[nH]1` [Entry 201, (S)-7-(2-(6,7-dihydro-5H-thiazolo[3,2-a]pyrimidin-3-yl)acetamido)-7-(5-(2-methoxyquinolin-3-yl)-1H-imidazol-2-yl)-N-methylheptanamide], the EC50 in experiment [1] is less than 1000 nM. In addition, on human HDAC1, the IC50 fell in the range of 1000 to 5000 nM.

For the compound `CNC(=O)CCCCC[C@H](NC(=O)CC1=CSC2=NCCCN12)c1ncc(-c2ccc3ccccc3c2)[nH]1` [Entry 202, (S)-7-(2-(6,7-dihydro-5H-thiazolo[3,2-a]pyrimidin-3-yl)acetamido)-N-methyl-7-(5-(naphthalen-2-yl)-1H-imidazol-2-yl)heptanamide], in experiment [1], the EC50 was less than 1000 nM. Further, the half-maximal inhibitory concentration (IC50) at human HDAC1 was 1000 to 5000 nM.
